ChEMBL document CHEMBL1122295, “Modified steroid hormones. 7. 4-Fluoro-17 beta-estradiol: carbon-13 nuclear magnetic resonance, crystal and molecular structure, and biological activity” (1983)
Several values for one entry are separate records, joined by “and”; a condition that tells them apart may be missing. Identical values can stand only once.

Legend:
Assay type in all cases: functional
Rattus norvegicus [1] = species on record: Rattus norvegicus; assay: Effect on the tumor incidence was determined in DMBA treated rats on day 150 (3 rats with tumors out of 10 rats)
Rattus norvegicus [2] = species on record: Rattus norvegicus; assay: Effect on the average tumor mass was determined in DMBA treated rats on day 30 (1 rats with tumors out of 10 rats)
Rattus norvegicus [3] = species on record: Rattus norvegicus; assay: Effect on the average tumor number was determined in DMBA treated rats on day 30 (1 rats with tumors out of 10 rats)
Rattus norvegicus [4] = species on record: Rattus norvegicus; assay: Effect on the average tumor mass was determined in DMBA treated rats on day 150 (3 rats with tumors out of 10 rats)
Rattus norvegicus [5] = species on record: Rattus norvegicus; assay: Effect on the tumor incidence was determined in DMBA treated rats on day 8 (3 rats with tumors out of 10 rats)
Rattus norvegicus [6] = species on record: Rattus norvegicus; assay: Effect on the average tumor mass was determined in DMBA treated rats on day 8 (3 rats with tumors out of 10 rats)
Rattus norvegicus [7] = species on record: Rattus norvegicus; assay: Effect on the average tumor number was determined in DMBA treated rats on day 1 (5 rats with tumors out of 10 rats)
Rattus norvegicus [8] = species on record: Rattus norvegicus; assay: Effect on the average tumor number was determined in DMBA treated rats on day 6 (5 rats with tumors out of 10 rats)
Rattus norvegicus [9] = species on record: Rattus norvegicus; assay: Effect on the tumor incidence was determined in DMBA treated rats on day 30 (1 rats with tumors out of 10 rats)
Rattus norvegicus [10] = species on record: Rattus norvegicus; assay: Effect on the average tumor mass was determined in DMBA treated rats on day 6 (5 rats with tumors out of 10 rats)
Rattus norvegicus [11] = species on record: Rattus norvegicus; assay: Effect on the tumor incidence was determined in DMBA treated rats on day 1 (5 rats with tumors out of 10 rats)
Rattus norvegicus [12] = species on record: Rattus norvegicus; assay: Effect on the average tumor number was determined in DMBA treated rats on day 8 (3 rats with tumors out of 10 rats)
Rattus norvegicus [13] = species on record: Rattus norvegicus; assay: Effect on the average tumor mass was determined in DMBA treated rats on day 1 (5 rats with tumors out of 10 rats)
Rattus norvegicus [14] = species on record: Rattus norvegicus; assay: Effect on the tumor incidence was determined in DMBA treated rats on day 6 (5 rats with tumors out of 10 rats)
Rattus norvegicus [15] = species on record: Rattus norvegicus; assay: Effect on the average tumor number was determined in DMBA treated rats on day 150 (3 rats with tumors out of 10 rats)
Rattus norvegicus [16] = species on record: Rattus norvegicus; assay: Effect on the tumor incidence was determined in DMBA treated rats on day 8 (4 rats with tumors out of 10 rats)
Rattus norvegicus [17] = species on record: Rattus norvegicus; assay: Effect on the average tumor number was determined in DMBA treated rats on day 8 (4 rats with tumors out of 10 rats)
Rattus norvegicus [18] = species on record: Rattus norvegicus; assay: Effect on the average tumor number was determined in DMBA treated rats on day 30 (3 rats with tumors out of 10 rats)
Rattus norvegicus [19] = species on record: Rattus norvegicus; assay: Effect on the average tumor mass was determined in DMBA treated rats on day 30 (3 rats with tumors out of 10 rats)
Rattus norvegicus [20] = species on record: Rattus norvegicus; assay: Effect on the average tumor number was determined in DMBA treated rats on day 150 (2 rats with tumors out of 10 rats)
Rattus norvegicus [21] = species on record: Rattus norvegicus; assay: Effect on the tumor incidence was determined in DMBA treated rats on day 150 (2 rats with tumors out of 10 rats)
Rattus norvegicus [22] = species on record: Rattus norvegicus; assay: Effect on the tumor incidence was determined in DMBA treated rats on day 30 (3 rats with tumors out of 10 rats)
Rattus norvegicus [23] = species on record: Rattus norvegicus; assay: Effect on the average tumor mass was determined in DMBA treated rats on day 150 (2 rats with tumors out of 10 rats)
Rattus norvegicus [24] = species on record: Rattus norvegicus; assay: Effect on the average tumor mass was determined in DMBA treated rats on day 8 (4 rats with tumors out of 10 rats)
Rattus norvegicus [25] = species on record: Rattus norvegicus; assay: Effect on the average tumor number was determined in DMBA treated rats on day 30 (9 rats with tumors out of 10 rats)
Rattus norvegicus [26] = species on record: Rattus norvegicus; assay: Effect on the average tumor mass was determined in DMBA treated rats on day 150 (9 rats with tumors out of 10 rats)
Rattus norvegicus [27] = species on record: Rattus norvegicus; assay: Effect on the tumor incidence was determined in DMBA treated rats on day 150 (9 rats with tumors out of 10 rats)
Rattus norvegicus [28] = species on record: Rattus norvegicus; assay: Effect on the tumor incidence was determined in DMBA treated rats on day 30 (9 rats with tumors out of 10 rats)
Rattus norvegicus [29] = species on record: Rattus norvegicus; assay: Effect on the average tumor mass was determined in DMBA treated rats on day 30 (9 rats with tumors out of 10 rats)
Rattus norvegicus [30] = species on record: Rattus norvegicus; assay: Effect on the average tumor number was determined in DMBA treated rats on day 150 (9 rats with tumors out of 10 rats)
Rattus norvegicus [31] = species on record: Rattus norvegicus; assay: Effect on the tumor incidence was determined in DMBA treated rats on day 30 (10 rats with tumors out of 10 rats)
Rattus norvegicus [32] = species on record: Rattus norvegicus; assay: Effect on the average tumor mass was determined in DMBA treated rats on day 6 (4 rats with tumors out of 10 rats)
Rattus norvegicus [33] = species on record: Rattus norvegicus; assay: Effect on the average tumor number was determined in DMBA treated rats on day 6 (4 rats with tumors out of 10 rats)
Rattus norvegicus [34] = species on record: Rattus norvegicus; assay: Effect on the tumor incidence was determined in DMBA treated rats on day 150 (10 rats with tumors out of 10 rats)
Rattus norvegicus [35] = species on record: Rattus norvegicus; assay: Effect on the average tumor mass was determined in DMBA treated rats on day 150 (10 rats with tumors out of 10 rats)
Rattus norvegicus [36] = species on record: Rattus norvegicus; assay: Effect on the average tumor number was determined in DMBA treated rats on day 30 (10 rats with tumors out of 10 rats)
Rattus norvegicus [37] = species on record: Rattus norvegicus; assay: Effect on the average tumor mass was determined in DMBA treated rats on day 30 (10 rats with tumors out of 10 rats)
Rattus norvegicus [38] = species on record: Rattus norvegicus; assay: Effect on the tumor incidence was determined in DMBA treated rats on day 6 (4 rats with tumors out of 10 rats)
Rattus norvegicus [39] = species on record: Rattus norvegicus; assay: Effect on the average tumor number was determined in DMBA treated rats on day 150 (10 rats with tumors out of 10 rats)

SMILES	Total tumors (Rattus norvegicus [1])	Tumor mass (Rattus norvegicus [2]) [g]	Tumor number (Rattus norvegicus [3])	Tumor mass (Rattus norvegicus [4]) [g]	Total tumors (Rattus norvegicus [5])	Tumor mass (Rattus norvegicus [6]) [g]	Tumor number (Rattus norvegicus [7])	Tumor number (Rattus norvegicus [8])	Total tumors (Rattus norvegicus [9])	Tumor mass (Rattus norvegicus [10])	Total tumors (Rattus norvegicus [11])	Tumor number (Rattus norvegicus [12])	Tumor mass (Rattus norvegicus [13])	Total tumors (Rattus norvegicus [14])	Tumor number (Rattus norvegicus [15])	Total tumors (Rattus norvegicus [16])	Tumor number (Rattus norvegicus [17])	Tumor mass (Rattus norvegicus [24])	other results
CC(C)[C@@H]1C(=O)N2CCC[C@H]2[C@]2(O)O[C@](NC(=O)[C@@H]3C=C4c5cccc6[nH]cc(c56)C[C@H]4N(C)C3)(C(C)C)C(=O)N12.C[C@]12CC[C@@H]3c4ccc(O)c(F)c4CC[C@H]3[C@@H]1CC[C@@H]2O.O=C(O)/C=C\C(=O)O	3	0.3	1	2.7	3	0.2	1.2	1	1	0.2 g	6	1	0.4 g	5	1	–	–	–	–
CC(=O)[C@H]1CC[C@H]2[C@@H]3CCC4=CC(=O)CC[C@]4(C)[C@H]3CC[C@]12C.CC(C)[C@@H]1C(=O)N2CCC[C@H]2[C@]2(O)O[C@](NC(=O)[C@@H]3C=C4c5cccc6[nH]cc(c56)C[C@H]4N(C)C3)(C(C)C)C(=O)N12.C[C@]12CC[C@@H]3c4ccc(O)c(F)c4CC[C@H]3[C@@H]1CC[C@@H]2O.O=C(O)/C=C\C(=O)O	3	0.5	1	1.2	–	–	1 and 1.2	1.4	1	0.8 g and 0.6 g	5 and 6	–	0.5 g and 0.4 g	7	1	5 and 6	1.3 and 1.4	0.5 g and 0.6 g	Tumor number (Rattus norvegicus [18]): 1; Tumor mass (Rattus norvegicus [19]): 0.3 g; Tumor number (Rattus norvegicus [20]): 2.5; Total tumors (Rattus norvegicus [21]): 5; Total tumors (Rattus norvegicus [22]): 3; Tumor mass (Rattus norvegicus [23]): 5 g
CC(C)[C@@H]1C(=O)N2CCC[C@H]2[C@]2(O)O[C@](NC(=O)[C@@H]3C=C4c5cccc6[nH]cc(c56)C[C@H]4N(C)C3)(C(C)C)C(=O)N12.O=C(O)/C=C\C(=O)O	–	–	–	–	–	–	1.6	1.2	–	0.4 g	8	–	0.8 g	6	–	5	1.3	0.4 g	Tumor number (Rattus norvegicus [25]): 1.3; Tumor mass (Rattus norvegicus [26]): 1.7 g; Total tumors (Rattus norvegicus [27]): 16; Total tumors (Rattus norvegicus [28]): 12; Tumor mass (Rattus norvegicus [29]): 0.4 g; Tumor number (Rattus norvegicus [30]): 1.9
CC(=O)[C@H]1CC[C@H]2[C@@H]3CCC4=CC(=O)CC[C@]4(C)[C@H]3CC[C@]12C.CC(C)[C@@H]1C(=O)N2CCC[C@H]2[C@]2(O)O[C@](NC(=O)[C@@H]3C=C4c5cccc6[nH]cc(c56)C[C@H]4N(C)C3)(C(C)C)C(=O)N12.O=C(O)/C=C\C(=O)O	–	–	–	–	4	0.9	1.2	–	–	–	6	1.3	0.4 g	–	–	–	–	–	Total tumors (Rattus norvegicus [31]): 15; Tumor mass (Rattus norvegicus [32]): 0.7 g; Tumor number (Rattus norvegicus [33]): 1; Total tumors (Rattus norvegicus [34]): 17; Tumor mass (Rattus norvegicus [35]): 4 g; Tumor number (Rattus norvegicus [36]): 1.5; Tumor mass (Rattus norvegicus [37]): 1.5 g; Total tumors (Rattus norvegicus [38]): 4; Tumor number (Rattus norvegicus [39]): 1.7
